Source: patent US12129264B2, “Crystalline forms of a PAR4 inhibitor” (BRISTOL-MYERS SQUIBB COMPANY, priority 2018, dated 2024)

Tests used:
[1] = Microdissolution of co-crystals versus free form in FaSSIF (pION Microdissolution Profiler); format: physicochemical; conditions: for AUC (extent of dissolution), Mean / Dissolution Rate, Mean: FaSSIF pH 6.5, 15 mL at 37° C., 150 rpm, API powder 0.2 mg/mL, N = 4; for AUC (extent of dissolution), Mean: 180 min, trapezoidal rule
Procedure: The dissolution of the N-1 form of the citric acid and the succinic acid co-crystals of the compound of formula (I) were tested against that of the free form of the compound of formula (I). The dissolution properties, rate and extent, and peak solubility were tested in FaSSIF (fasted state simulated intestinal fluid).
This experiment was performed on a pION Microdissolution Profiler™ an API sparing, low volume dissolution instrument with UV fiber optics (UVFO) probes to measure real-time dissolution profile in biorelevant media. The experimental was run under the following conditions: • Apparatus: plon Microdissolution profiler • Media: FaSSIF, pH 6.5 • Volume: 15 mL at 37° C. • Stirring: 150 rpm with small stirrer bar • Dose: API powder at 0.2 mg/mL or 3 mg/vial • Study duration: 180 min
Time points: several time points to capture initial dissolution rate and through 180 min (typical time for absorption)
The results were analyzed using UVFO Analysis: Standard curve range 0-3 μg/mL; 10 mm path length probe windows; detection wavelength 315 nm; slope ˜17 μg/mL/AU; R2=0.99.

[2] = Pharmacokinetic study of co-crystal capsules in the dog model; format: in vivo; conditions: for Systemic absorption in the dog model: at relevant doses (5 mg capsule); for AUC0-24h, Mean / Cmax, Mean / Tmax: capsule, 5 mg/dog, pentagastrin pre-treated fasted male dogs, crossover in 4 dogs
Procedure: The co-crystals were tested using the following formulations: • 1. Succinic Acid co-crystal capsule (5 mg dose)—Pentagastrin pre-treated, fasted dogs • 2. Citric Acid co-crystal capsule (5 mg dose)—Pentagastrin pre-treated, fasted dogs
The Study Design is as follows:
Crossover in 4 fasted male dogs (˜10 kg); dose 5 mg/dog; flush with 50 mL water; 2-week washout between treatments; 8 blood sample points per treatments.

Row | Compound | Dissolution in FaSSIF compared with the free form [1] | AUC (extent of dissolution), Mean [1] | Dissolution Rate, Mean [1] | Systemic absorption in the dog model [2] | AUC0-24h, Mean [2] | Cmax, Mean [2] | Tmax [2]
1 | 4-(4-(((6-Methoxy-2-(2-methoxyimidazo[2,1-b][1,3,4]thiadiazol-6-yl)benzofuran-4-yl)oxy)methyl)thiazol-2-yl)-N,N-dimethylbenzamide: citric acid co-crystal (1:1), form N-1 [Example 2] | better than the free form | 988.900 µg·min/mL | 0.584 µg/mL/min | measurable systemic absorption | 161.61 ng·h/mL | 29.28 ng/mL | 2.0 h
2 | COc1cc(OCc2csc(-c3ccc(C(=O)N(C)C)cc3)n2)c2cc(-c3cn4nc(OC)sc4n3)oc2c1 [Free form, 4-(4-(((6-Methoxy-2-(2-methoxyimidazo[2,1-b][1,3,4]thiadiazol-6-yl)benzofuran-4-yl)oxy)methyl)thiazol-2-yl)-N,N-dimethylbenzamide] |  | 0 µg·min/mL | 0 µg/mL/min |  |  |  | 
3 | 4-(4-(((6-Methoxy-2-(2-methoxyimidazo[2,1-b][1,3,4]thiadiazol-6-yl)benzofuran-4-yl)oxy)methyl)thiazol-2-yl)-N,N-dimethylbenzamide: succinic acid co-crystal (1:0.5) [Example 1] | better than the free form | 272.622 µg·min/mL | 0.144 µg/mL/min | measurable systemic absorption | 93.97 ng·h/mL | 12.22 ng/mL | 1.5 h
